Data as given in patent US20140274782A1, “AFFINITY REAGENTS AND METHODS FOR DETECTION, PURIFICATION, AND PROTEOMIC ANALYSIS OF METHYLATED PROTEINS” (The Board of Trustees of the Leland Stanford Junior …, priority 2013, published 2014).

How the values were obtained:
[1] = tested on: 3×MBT domain of L3MBTL1; experiment: SILAC proteomic pull-down 3×MBT vs 3×MBTD355N from 293T nuclear extract, LC-MS/MS; assay type: binding, human; details: for Protein Ratio 3xMBT/D355N: SILAC ratio, 293T nuclear extract pull-down, * = protein identified in only one labeling experiment
Procedure: Protein pull-downs were performed as described above using 600 μg of nuclear extract prepared with isotopic labels as indicated. After eluting with glutathione, 3×MBT domain was removed by dialysis into high salt and rebinding to GSH-sepharose. Bound proteins were separated by SDS-PAGE and analyzed by in-gel tryptic digest followed by LC-MS/MS. Peptides were identified using MaxQuant version 1.2.2.5 (Cox and Mann (2008) Nat. Biotechnol. 26, 1367-1372) and candidate methylated peptides were verified by manual inspection.
For stable isotope labeling by amino acids in cell culture (SILAC) experiments HEK 293T cells were grown for at least six doublings in DMEM for SILAC supplemented with 10% dialyzed fetal bovine serum (FBS), 230 mg/L L-proline and either 100 mg/L each of L-lysine and L-arginine (“light” medium), D4-L-lysine and ^13C6-L-arginine (“medium” media), or ^13C6^15N2-L-lysine and ^13C6^15N4-L-arginine (Thermo Scientific). Heavy methyl labeling used DMEM without L-Methionine or L-Cysteine supplemented with D3^13C-L-Methionine (Sigma), L-Cysteine (Sigma) and 10% dialyzed FBS.
600 μg of nuclear extract was incubated overnight rotating at 4° C. with 20 μl packed 3×MBT or 3×MBTD355N beads in a total volume of 250 μL with binding buffer. Supernatant was removed and saved for use as a loading control. Beads were washed 4×5 minutes with 0.5 mL binding buffer. Protein was eluted by incubating in 20 μL elution buffer (10 mg/mL glutathione in 50 mM Tris pH 8.0) rotating at 4° C. for four hours. Elutions from 3×MBT and 3×MBTD355N were combined and dialyzed overnight at 4° C. against 10,000× volume of dissociation buffer (50 mM Tris pH 7.5, 750 mM NaCl) in a 0.1 mL Slide-A-Lyzer MINI Dialysis Device with 3.5K molecular weight cutoff (Thermo Scientific). 80 μL of GSH-Sepharose was prepared by washing briefly three times with 0.5 mL binding buffer. Dialyzed proteins were added to the GSH-Sepharose and incubated 4 hours rotating at 4° C. to deplete the GST-fusion domains. Supernatant was transferred to a fresh 1.5 mL tube. Proteins were separated by SDS-PAGE on a 10% polyacrylamide gel and stained using SilverQuest Silver Staining Kit (Life Technologies). Lanes were excised, residual 3×MBT band was removed, and gel was diced into 0.5 mm cubes. Gel pieces were destained and processed by in-gel digestion (Carlson et al. (2011) Science Signaling 4) with sequencing grade trypsin (Promega) and the peptide sample was dried completely in a vacuum centrifuge. To prepare a loading control, 2 μL each of light and heavy nuclear extract were combined, 6 μL of 8M urea was added, proteins were denatured by adding 2 μL of 100 mM dithiothreitol in digest buffer (50 mM ammonium bicarbonate) and heating to 60° C. for 1 hour, cysteine was alkylated by adding 2.2 μL 100 mg/mL iodoacetamide in digest buffer and incubating 1 hour at room temperature in darkness, and proteins were digested by adding 80 μL trypsin (Promega) at 12.5 ng/μL in digest buffer and incubating overnight at room temperature in darkness. Digestion was stopped by adding 10 μL of 10% formic acid.
Each experiment consisted of two sets of pull-downs: “forward” labeling with 3×MBT incubated with light nuclear extract and 3×MBTD355N with medium extract, and a second “reverse” labeling experiment with the label conditions swapped. Proteins were included in the results if they were quantified in both labeling directions. To determine reproducibility the entire experiment including the label swap was duplicated using independent protein preparations and a mass spectrometer at another institution.
For 3×MBT pull-down experiment #1 the gel lane was processed and peptides were loaded off-line onto a first dimension trap column (Waters Xbridge, C18, 10 μm particle size, 100 Å pore size, 5 cm packing length, 150 μm column i.d.). […]

[2] = biological target: T1, G9a and GLP (Homo sapiens, UniProt Q96KQ7+Q9H9B1); experiment: Triple SILAC pull-down after UNC0638 treatment of 293T cells, DMSO/UNC0638 ratio of protein captured by 3×MBT; assay type: cell-based; details: 293T cells, 2.5 μM, 24 hours;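 also: mass spectrometry (Q-Exactive) SILAC quantitation, DMSO/UNC0638 ratio computed after subtracting 3×MBTD355N mutant pull-down background, only proteins with at least twofold 3×MBT over mutant signal considered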
T1 construct: endogenous in cells; host or cells: HEK 293T
T1 sequence (Q96KQ7 2-1210 limits assumed): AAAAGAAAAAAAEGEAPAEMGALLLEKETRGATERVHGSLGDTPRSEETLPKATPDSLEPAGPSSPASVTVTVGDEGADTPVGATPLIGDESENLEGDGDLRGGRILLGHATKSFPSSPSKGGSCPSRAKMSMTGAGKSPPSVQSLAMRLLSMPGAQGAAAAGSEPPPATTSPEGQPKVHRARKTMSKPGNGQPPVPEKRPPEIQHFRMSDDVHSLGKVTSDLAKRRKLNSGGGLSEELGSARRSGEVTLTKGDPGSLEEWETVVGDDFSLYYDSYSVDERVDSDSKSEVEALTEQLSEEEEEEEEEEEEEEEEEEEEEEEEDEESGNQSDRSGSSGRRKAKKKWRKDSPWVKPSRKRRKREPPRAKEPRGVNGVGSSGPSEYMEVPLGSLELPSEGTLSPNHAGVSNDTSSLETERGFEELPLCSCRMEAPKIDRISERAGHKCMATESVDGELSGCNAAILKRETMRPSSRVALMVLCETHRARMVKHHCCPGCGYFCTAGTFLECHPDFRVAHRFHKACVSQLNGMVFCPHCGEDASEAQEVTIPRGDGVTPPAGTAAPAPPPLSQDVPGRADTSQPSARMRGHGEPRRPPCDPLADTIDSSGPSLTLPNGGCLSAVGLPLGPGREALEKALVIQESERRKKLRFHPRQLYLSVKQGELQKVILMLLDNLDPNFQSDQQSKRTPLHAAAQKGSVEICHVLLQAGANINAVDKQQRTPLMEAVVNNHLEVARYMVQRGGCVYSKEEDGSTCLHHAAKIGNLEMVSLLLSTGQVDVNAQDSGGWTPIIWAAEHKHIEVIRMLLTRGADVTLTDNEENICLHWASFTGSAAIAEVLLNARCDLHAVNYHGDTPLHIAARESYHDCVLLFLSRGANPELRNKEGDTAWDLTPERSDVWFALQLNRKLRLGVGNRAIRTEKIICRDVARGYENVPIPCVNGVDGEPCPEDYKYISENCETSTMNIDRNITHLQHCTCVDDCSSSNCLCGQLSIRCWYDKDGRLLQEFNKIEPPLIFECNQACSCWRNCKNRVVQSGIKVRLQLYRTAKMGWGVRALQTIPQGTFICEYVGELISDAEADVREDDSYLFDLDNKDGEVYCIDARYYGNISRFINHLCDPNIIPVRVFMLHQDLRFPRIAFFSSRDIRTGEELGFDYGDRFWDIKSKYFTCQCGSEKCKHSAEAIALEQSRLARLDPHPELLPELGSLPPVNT
T1 sequence (Q9H9B1 2-1298 limits assumed): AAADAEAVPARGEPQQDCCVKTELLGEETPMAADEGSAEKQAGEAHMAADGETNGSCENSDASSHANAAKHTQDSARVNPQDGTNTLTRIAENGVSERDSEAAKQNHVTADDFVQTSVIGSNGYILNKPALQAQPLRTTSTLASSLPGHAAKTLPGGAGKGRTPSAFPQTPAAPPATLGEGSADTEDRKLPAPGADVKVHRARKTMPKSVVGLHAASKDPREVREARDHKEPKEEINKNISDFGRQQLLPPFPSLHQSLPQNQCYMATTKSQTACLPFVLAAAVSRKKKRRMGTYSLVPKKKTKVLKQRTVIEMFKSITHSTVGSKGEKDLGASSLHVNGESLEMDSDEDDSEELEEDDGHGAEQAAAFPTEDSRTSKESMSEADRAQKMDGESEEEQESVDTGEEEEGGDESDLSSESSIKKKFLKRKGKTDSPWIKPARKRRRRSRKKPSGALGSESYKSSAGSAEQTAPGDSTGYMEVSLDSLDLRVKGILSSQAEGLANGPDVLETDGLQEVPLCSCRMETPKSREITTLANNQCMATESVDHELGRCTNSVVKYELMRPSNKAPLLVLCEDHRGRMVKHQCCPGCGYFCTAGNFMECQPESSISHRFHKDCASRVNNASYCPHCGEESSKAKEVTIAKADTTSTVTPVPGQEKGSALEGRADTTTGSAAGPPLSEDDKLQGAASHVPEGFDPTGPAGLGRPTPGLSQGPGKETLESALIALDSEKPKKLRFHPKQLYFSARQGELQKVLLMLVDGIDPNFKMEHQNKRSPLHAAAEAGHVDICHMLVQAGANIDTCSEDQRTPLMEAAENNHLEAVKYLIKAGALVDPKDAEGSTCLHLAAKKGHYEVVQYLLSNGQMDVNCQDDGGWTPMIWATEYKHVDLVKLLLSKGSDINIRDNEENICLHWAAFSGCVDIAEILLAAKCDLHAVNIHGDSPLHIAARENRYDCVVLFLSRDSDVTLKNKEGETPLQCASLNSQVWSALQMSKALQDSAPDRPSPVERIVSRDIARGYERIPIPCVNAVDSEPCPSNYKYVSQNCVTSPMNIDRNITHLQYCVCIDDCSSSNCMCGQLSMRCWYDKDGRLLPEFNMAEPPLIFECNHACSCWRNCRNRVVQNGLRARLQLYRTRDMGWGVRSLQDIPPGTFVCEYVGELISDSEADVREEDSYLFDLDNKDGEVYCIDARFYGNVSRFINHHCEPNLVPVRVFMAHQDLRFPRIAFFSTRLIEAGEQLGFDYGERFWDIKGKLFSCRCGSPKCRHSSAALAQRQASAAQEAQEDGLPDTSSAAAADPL

[3] = tested on: H3K9me2; experiment: Western blot of 293T whole cell extracts ±UNC0638; assay type: cell-based; details: 293T cells
Procedure: For UNC0638 treatments cells were treated for 24 hours with UNC0638 at 2.5 μM or DMSO vehicle control. One experiment treated cells in light media with UNC0638, the other treated cells in heavy media. Both experiments included cells in medium media treated with DMSO for negative control pull-down with 3×MBTD355N.

With “3×MBTD355N: 3×MBT with mutation of aspartate 355 to asparagine; abrogates binding to methyl-lysine; negative control [reference compound]” as the compound, how does the “number of the 544 identified proteins enriched at 2-fold versus the other domain” value ([1]; SILAC) read?
The value was 3.

And the “percentage of the 544 identified proteins enriched at 2-fold versus the other domain” value ([1]; SILAC)?
The value was 0.6%.

For `COc1cc2c(NC3CCN(C(C)C)CC3)nc(C3CCCCC3)nc2cc1OCCCN1CCCC1` [UNC0638, reference compound], which “number of candidate G9a/GLP substrates showing reduced association with 3×MBT in response to treatment” value [2] is on record?
The value was 23.

And the “levels of the G9a target H3K9me2 in treated cells” value [3]?
Its value is “reduced”.

For “TUBB2C: protein with methylated lysine identified in 3xMBT pull-down”, which “Protein Ratio 3xMBT/D355N” value [1] is on record?
The value was 2.1.

How did the “Protein Ratio 3xMBT/D355N” value [1] turn out when “hn RNP A/B: protein with methylated lysine identified in 3xMBT pull-down” was run?
Its value is 13.4.

With “hnRNP K: protein with methylated lysine identified in 3xMBT pull-down” as the compound, how does the “Protein Ratio 3xMBT/D355N” value [1] read?
The value was 8.0.
